According to PubChem BioAssay AID2060907 (Molecular Pharmacology Branch, DTP, NCI, 2025):

Tested on: 388556-164-R-J1-PDC complex spheroid viability
Experiment: Anticancer human tumor 388556-164-R-J1-PDC patient-derived colon adenocarcinoma cell line growth inhibition [RAS]
Settings: for IC50: curve of first compound; for viability, T/C: stronger effect = lower value; active = viability on the fitted dose curve at most 10% of control; inactive = the rest
Procedure, shortened: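 Multi-cell-type spheroids: tumor cells plus HUVEC endothelial cells and mesenchymal stem cells. RAS-pathway inhibitors were combined with targeted agents, each dosed in half-log steps down from clinical Cmax, or from 10 microM when Cmax was unknown.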

[1] = second compound 0.0316 µM, first compound 0.0316 µM
[2] = second compound 0.0316 µM, first compound 0.1 µM
[3] = second compound 0.0316 µM, first compound 0.316 µM
[4] = second compound 0.0316 µM, first compound 1 µM
[5] = second compound 0.1 µM, first compound 0.0316 µM
[6] = second compound 0.1 µM, first compound 0.1 µM
[7] = second compound 0.1 µM, first compound 0.316 µM
[8] = second compound 0.1 µM, first compound 1 µM
[9] = second compound 0.316 µM, first compound 0.0316 µM
[10] = second compound 0.316 µM, first compound 0.1 µM
[11] = second compound 0.316 µM, first compound 0.316 µM
[12] = second compound 0.316 µM, first compound 1 µM
[13] = second compound 1 µM, first compound 0.0316 µM
[14] = second compound 1 µM, first compound 0.1 µM
[15] = second compound 1 µM, first compound 0.316 µM
[16] = second compound 1 µM, first compound 1 µM
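Note: spheroids exposed to compound for 7 days before readout.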
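Throughout, for viability, T/C: 100% = DMSO vehicle control luminescence.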

CC(C)NCC(C(=O)N1CCN(c2ncnc3c2C(C)CC3O)CC1)c1ccc(Cl)cc1 (stereo unspecified) + C#Cc1c(F)ccc2cc(O)cc(-c3ncc4c(N5CC6CCC(C5)N6)nc(OCC56CCCN5CC(F)C6)nc4c3F)c12
inactive: viability, T/C [1] 95.9% | viability, T/C [2] 106% | viability, T/C [3] 109% | viability, T/C [4] 98.6% | viability, T/C (second compound 0.0316 µM, first compound 3.16 µM) 99.2% | viability, T/C (second compound 0.0316 µM, first compound 10 µM) 100% | viability, T/C [5] 98.5% | viability, T/C [6] 107% | viability, T/C [7] 99.7% | viability, T/C [8] 96% | viability, T/C (second compound 0.1 µM, first compound 3.16 µM) 113% | viability, T/C (second compound 0.1 µM, first compound 10 µM) 93.6% | viability, T/C [9] 99% | viability, T/C [10] 105% | viability, T/C [11] 88.5% | viability, T/C [12] 99.2% | viability, T/C (second compound 0.316 µM, first compound 3.16 µM) 107% | viability, T/C (second compound 0.316 µM, first compound 10 µM) 82.3% | viability, T/C [13] 95.5% | viability, T/C [14] 93.1% | viability, T/C [15] 69.4% | viability, T/C [16] 92.1% | viability, T/C (second compound 1 µM, first compound 3.16 µM) 93.5% | viability, T/C (second compound 1 µM, first compound 10 µM) 77.8% | viability, T/C (second compound 3.16 µM, first compound 0.0316 µM) 80.6% | viability, T/C (second compound 3.16 µM, first compound 0.1 µM) 66.6% | viability, T/C (second compound 3.16 µM, first compound 0.316 µM) 75.9% | viability, T/C (second compound 3.16 µM, first compound 1 µM) 83.8% | viability, T/C (second compound 3.16 µM, first compound 3.16 µM) 88.4% | viability, T/C (second compound 3.16 µM, first compound 10 µM) 59.4% | viability, T/C (second compound 10 µM, first compound 0.0316 µM) 69.2% | viability, T/C (second compound 10 µM, first compound 0.1 µM) 67.3% | viability, T/C (second compound 10 µM, first compound 0.316 µM) 73.2% | viability, T/C (second compound 10 µM, first compound 1 µM) 87.2% | viability, T/C (second compound 10 µM, first compound 3.16 µM) 42% | viability, T/C (second compound 10 µM, first compound 10 µM) 53.3%
> 10000 nM: IC50 (second compound 0.0316 µM) | IC50 (second compound 0.1 µM) | IC50 (second compound 0.316 µM) | IC50 (second compound 1 µM) | IC50 (second compound 3.16 µM)
8860 nM: IC50 (second compound 10 µM)

C=CC(=O)N1CCN(c2nc(OCC3CCCN3C)nc3c(F)c(-c4nc(N)cc(C)c4C(F)(F)F)c(Cl)cc23)C(C)C1 (stereo unspecified) + CCn1c(-c2cc(N3CCN(C)CC3)cnc2C(C)OC)c2c3cc(ccc31)-c1csc(n1)CC(NC(=O)C1CC1C)C(=O)N1CCCC(N1)C(=O)OCC(C)(C)C2
> 1000 nM: IC50 (second compound 0.000949 µM) | IC50 (second compound 0.003 µM) | IC50 (second compound 0.00949 µM) | IC50 (second compound 0.03 µM)
< 3.16 nM: IC50 (second compound 0.0949 µM) | IC50 (second compound 0.3 µM)
inactive: viability, T/C (second compound 0.000949 µM, first compound 0.00316 µM) 90.9% | viability, T/C (second compound 0.000949 µM, first compound 0.01 µM) 97.7% | viability, T/C (second compound 0.000949 µM, first compound 0.0316 µM) 86.2% | viability, T/C (second compound 0.000949 µM, first compound 0.1 µM) 91.5% | viability, T/C (second compound 0.000949 µM, first compound 0.316 µM) 92.1% | viability, T/C (second compound 0.000949 µM, first compound 1 µM) 93.5% | viability, T/C (second compound 0.003 µM, first compound 0.00316 µM) 94.8% | viability, T/C (second compound 0.003 µM, first compound 0.01 µM) 83.5% | viability, T/C (second compound 0.003 µM, first compound 0.0316 µM) 92.7% | viability, T/C (second compound 0.003 µM, first compound 0.1 µM) 86.9% | viability, T/C (second compound 0.003 µM, first compound 0.316 µM) 86.5% | viability, T/C (second compound 0.003 µM, first compound 1 µM) 84.2% | viability, T/C (second compound 0.00949 µM, first compound 0.00316 µM) 87% | viability, T/C (second compound 0.00949 µM, first compound 0.01 µM) 79.5% | viability, T/C (second compound 0.00949 µM, first compound 0.0316 µM) 78.8% | viability, T/C (second compound 0.00949 µM, first compound 0.1 µM) 70.4% | viability, T/C (second compound 0.00949 µM, first compound 0.316 µM) 85% | viability, T/C (second compound 0.00949 µM, first compound 1 µM) 65.9% | viability, T/C (second compound 0.03 µM, first compound 0.00316 µM) 63.6% | viability, T/C (second compound 0.03 µM, first compound 0.01 µM) 68.7% | viability, T/C (second compound 0.03 µM, first compound 0.0316 µM) 62.2% | viability, T/C (second compound 0.03 µM, first compound 0.1 µM) 62.3% | viability, T/C (second compound 0.03 µM, first compound 0.316 µM) 63.3% | viability, T/C (second compound 0.03 µM, first compound 1 µM) 62% | viability, T/C (second compound 0.0949 µM, first compound 0.00316 µM) 43.2% | viability, T/C (second compound 0.0949 µM, first compound 0.01 µM) 39.9% | viability, T/C (second compound 0.0949 µM, first compound 0.0316 µM) 43.1% | viability, T/C (second compound 0.0949 µM, first compound 0.1 µM) 49.5% | viability, T/C (second compound 0.0949 µM, first compound 0.316 µM) 52.8% | viability, T/C (second compound 0.0949 µM, first compound 1 µM) 45.6% | viability, T/C (second compound 0.3 µM, first compound 0.00316 µM) 33.2% | viability, T/C (second compound 0.3 µM, first compound 0.01 µM) 31% | viability, T/C (second compound 0.3 µM, first compound 0.0316 µM) 30.9% | viability, T/C (second compound 0.3 µM, first compound 0.1 µM) 34.9% | viability, T/C (second compound 0.3 µM, first compound 0.316 µM) 38% | viability, T/C (second compound 0.3 µM, first compound 1 µM) 32%

Nc1ccn(C2OC(CO)C(O)C2(F)F)c(=O)n1 (stereo unspecified) + C=CC(=O)N1CCN(c2nc(OCC3CCCN3C)nc3c(F)c(-c4nc(N)cc(C)c4C(F)(F)F)c(Cl)cc23)C(C)C1
inactive: viability, T/C (second compound 0.00316 µM, first compound 0.00316 µM) 106% | viability, T/C (second compound 0.00316 µM, first compound 0.01 µM) 90.6% | viability, T/C (second compound 0.00316 µM, first compound 0.0316 µM) 82.7% | viability, T/C (second compound 0.00316 µM, first compound 0.1 µM) 79.4% | viability, T/C (second compound 0.00316 µM, first compound 0.316 µM) 60.9% | viability, T/C (second compound 0.00316 µM, first compound 1 µM) 75.8% | viability, T/C (second compound 0.01 µM, first compound 0.00316 µM) 94.3% | viability, T/C (second compound 0.01 µM, first compound 0.01 µM) 89.6% | viability, T/C (second compound 0.01 µM, first compound 0.0316 µM) 76.3% | viability, T/C (second compound 0.01 µM, first compound 0.1 µM) 79.3% | viability, T/C (second compound 0.01 µM, first compound 0.316 µM) 70% | viability, T/C (second compound 0.01 µM, first compound 1 µM) 68.3% | viability, T/C (second compound 0.0316 µM, first compound 0.00316 µM) 104% | viability, T/C (second compound 0.0316 µM, first compound 0.01 µM) 87.1% | viability, T/C [1] 78.2% | viability, T/C [2] 71.6% | viability, T/C [3] 76.9% | viability, T/C [4] 68.4% | viability, T/C (second compound 0.1 µM, first compound 0.00316 µM) 87.4% | viability, T/C (second compound 0.1 µM, first compound 0.01 µM) 85.3% | viability, T/C [5] 74% | viability, T/C [6] 65.6% | viability, T/C [7] 73.8% | viability, T/C [8] 67.1% | viability, T/C (second compound 0.316 µM, first compound 0.00316 µM) 92.8% | viability, T/C (second compound 0.316 µM, first compound 0.01 µM) 95.9% | viability, T/C [9] 75.5% | viability, T/C [10] 74.8% | viability, T/C [11] 72.1% | viability, T/C [12] 67.3% | viability, T/C (second compound 1 µM, first compound 0.00316 µM) 97.2% | viability, T/C (second compound 1 µM, first compound 0.01 µM) 82.7% | viability, T/C [13] 80.2% | viability, T/C [14] 76.2% | viability, T/C [15] 72% | viability, T/C [16] 68.9%
> 1000 nM: IC50 (second compound 0.00316 µM) | IC50 (second compound 0.01 µM) | IC50 (second compound 0.0316 µM) | IC50 (second compound 0.1 µM) | IC50 (second compound 0.316 µM) | IC50 (second compound 1 µM)
